test system: THP-1 (AML) cells; test: LSD1 CD11b cellular assay (flow cytometry); type: cell-based; conditions: Homo sapiens, 96 h; CD11b expression in THP-1 cells, 4 days incubation
Procedure: To analyze LSD1 inhibitor efficacy in cells, a CD11b flow cytometry assay was performed. LSD1 inhibition induces CD11b expression in THP-1 (AML) cells which can be measured by flow cytometry. […] LSD1 test compounds were serially diluted in DMSO. The dilutions were added to each well accordingly to a final concentration of 0.2% DMSO. The cells were incubated at 37 degrees Celsius in 5% CO2 for 4 days. 250 μL of each well was transferred to a well in a 96 well round bottom plate. The plate was centrifuged at 1200 rpm at 4 degrees Celsius in a Beckman Coulter Alegra 6KR centrifuge for 5 minutes. The media was removed leaving the cells at the bottom of the wells. The cells were washed in 100 μL cold HBSS (Hank's Balanced Salt Solution) plus 2% BSA (Bovine Serum Albumin) solution and centrifuged at 1200 rpm at 4 degrees Celsius for 5 minutes. The wash was removed. […] The cells were centrifuged and washed two times in 100 μl HBSS plus 2% BSA. After the final spin the cells were resuspended in 100 μL HBSS plus 2% BSA containing 1 ug/mL DAPI (4′,6-diamidino-2-phenylindole). The cells were then analyzed by flow cytometry in a BD FACSAria machine. Cells were analyzed for CD11b expression. The percent of CD11b expressing cells for each inhibitor concentration was used to determine an IC50 curve for each compound analyzed.

| IC50 [nM] | SMILES |
| --- | --- |
| 100 to 1000 | N#Cc1ccc(-c2nc(NCC3CCNC3)ncc2C#CC2CC2)cc1 (stereo not shown) [Example 26] |

target: human LSD1 (Homo sapiens (Human), UniProt O60341); test: In vitro enzyme inhibition assay LSD-1 (TR-FRET); type: biochemical; conditions: full-length human LSD1, H3K4me1-biotin peptide
Procedure: This assay determines the ability of a test compound to inhibit LSD1 demethylase activity.
The enzymatic assay of LSD1 activity is based on Time Resolved-Fluorescence Resonance Energy Transfer (TR-FRET) detection.
The ability of the compounds disclosed herein to inhibit LSD1 activity was quantified and the respective IC50 value was determined.

| IC50 [nM] | SMILES |
| --- | --- |
| 100 to 1000 | N#Cc1ccc(-c2cc3c(ccn3C[C@@H]3CCNC3)nc2N2CCOCC2)cc1 [Example 6] |
| 100 to 1000 | N#Cc1ccc(-c2nc(N3CC4CNCC(C3)O4)ncc2-c2ccc(F)cc2)cc1 [Example 42, 4-[5-(4-fluorophenyl)-2-{9-oxa-3,7-diazabicyclo[3.3.1]nonan-3-yl}pyrimidin-4-yl]benzonitrile] |
| < 100 | Cc1ccc(-c2cnc(NCC3CCCNC3)nc2-c2ccc(C#N)cc2)cc1 (racemic) [Example 31, (±)-4-5-(4-methylphenyl)-2-[(piperidin-3-ylmethyl)amino]pyrimidin-4-yl]benzonitrile] |
| 100 to 1000 | N#Cc1ccc(-c2nc(NC[C@H]3CCNC3)ncc2Cl)cc1 [Example 17, 4-(5-chloro-2-{[(3S)-pyrrolidin-3-ylmethyl]amino}pyrimidin-4-yl)benzonitrile] |
| < 100 | Cc1ccc(-c2cnc(NCC3CNCCO3)nc2-c2ccc(C#N)cc2)cc1 (racemic) [Example 33, (±)-4-[5-(4-methylphenyl)-2-[(morpholin-2-ylmethyl)amino]pyrimidin-4-yl]benzonitrile] |
| 100 to 1000 | N#Cc1ccc(-c2cc3c(ccn3C[C@H]3CCNC3)nc2Cl)cc1 [Example 4] |
| 100 to 1000 | Cc1ccc(-c2cnc(N[C@@H]3C[C@H]4CNC[C@H]4C3)nc2-c2ccc(C#N)cc2)cc1 [Example 27] |
| 100 to 1000 | Cc1ccc(-c2cnc(N3CC4CNCC(C3)O4)nc2-c2ccc(C#N)cc2)cc1 [Example 41, 4-[5-(4-methylphenyl)-2-{9-oxa-3,7-diazabicyclo[3.3.1]nonan-3-yl}pyrimidin4-yl]benzonitrile] |
| 100 to 1000 | N#Cc1ccc(-c2cc3c(ccn3CC3(F)CCNC3)nc2N2CCOCC2)cc1 (stereo not shown) [Example 8, 4-[1-[(3-fluoropyrrolidin-3-yl)methyl]-5-morpholin-4-ylpyrrolo[3,2-b]pyridin-6-yl]benzonitrile] |

From patent publication US10864202B2, “Inhibitors of lysine specific demethylase-1” (CELGENE QUANTICEL RESEARCH, INC., priority 2014, dated 2020)
